The test system of assay [1] is patients suffering from depression caused by stress or emotional exhaustion. The assay is described as follows: clinical investigation of LH-RH in patients suffering from depression. It counts as in vivo, human. The procedure:
Twenty-one patients, suffering from depression caused by stress or emotional exhaustion, were selected for the investigation. Fifteen were female adults, five were male adults and one patient was a young person […]. The latter patient suffered from existential depression and cryptorchidism. Each patient received 300 mcg of LH-RH in a single or divided dose once a month. In this instance the LH-RH was in the form of its hydrochloride acid addition salt and was prepared according to the syntheses reported by Immer et al., noted above. […] Relief from depression usually was observed within 12 hours and in almost all cases within 24 hours. The patients became more cheerful and aware of feeling much better. […] This latter patient sufferred from depression and sexual frigidity; however, in this instance there was no anhedonia regression and some erotic pulsations did occur. […] The greatest hormonal responses coincided with the most evident clinical improvement. In a control study, five patients with established depression were treated with an injection of only the vehicle for the above noted LH-RH dosage.

Assay [2] concerns patients with endogenous depression. To be noted: given in randomized order on days 1, 3 and 5; Lancet 1974; cited from earlier work.

Consider `CC(C)C[C@H](NC(=O)CNC(=O)[C@H](Cc1ccc(O)cc1)NC(=O)[C@H](CO)NC(=O)[C@H](Cc1c[nH]c2ccccc12)NC(=O)[C@H](Cc1c[nH]cn1)NC(=O)[C@@H]1CCC(=O)N1)C(=O)N[C@@H](CCCNC(=N)N)C(=O)N1CCC[C@H]1C(=O)NCC(N)=O` [LH-RH, (pyro)-Glu-His-Trp-Ser-Tyr-Gly-Leu-Arg-Pro-Gly-NH2], for which, in assay [1] (21 patients, 300 mcg once a month), the “sleep, appetite and disposition for work” value is “Sleep and appetite were regularized as well as disposition for work”. The “time to relief from depression (almost all cases)” value in assay [1] (21 patients, 300 mcg once a month, in almost all cases) was not above 24 h. Also, the libido response result in assay [1] (21 patients, 300 mcg once a month, most noticeable in female patients) is “An improvement in libido response occurred frequently”. Further, in assay [1] (21 patients, 300 mcg once a month, usually observed), the “time to relief from depression (usually)” value is not above 12 h. The “onset of response after administration” value in assay [1] (21 patients, 300 mcg single or divided dose once a month, hydrochloride salt) was “response was immediate”. Besides, in assay [1] (100-800 mcg LH-RH or acid addition salt, moderately to severely depressed patient, usually), the “time until symptoms of depression disappear” value is not above 24 h. For the same molecule, the “results in stress induced (reactive) depression” value in assay [1] (dosages 100-800 mcg, patients suffering from stress induced depression) is “Especially effective and favorable results”. The “hormonal responses: serum levels of luteinizing hormone, follicular stimulating hormone, prolactin and thyrotrophin releasing hormone” value in assay [1] (monitored during treatment, greatest responses coincided with most evident clinical improvement) was “increases in the serum levels”. In assay [1] (of 21 patients, 300 mcg once a month), the patients not responding result is given as “Only one patient did not respond”. Also, in assay [1] (younger patients, measured at 30 and 60 days after beginning of treatment), the “gonadotropin response in younger patients (growth of penis, development of scrota)” value is reported as “there was a gonadotropin response”. Moreover, the “clinical importance in the treatment of endogenous depression” value in assay [2] is given as “of no clinical importance”.
On to `NC(=O)[C@@H]1CCCN1C(=O)[C@H](Cc1cnc[nH]1)NC(=O)[C@@H]1CCC(=O)N1` [thyrotropin releasing hormone], for which, in assay [2], the “clinical importance in the treatment of endogenous depression” value is recorded as “of no clinical importance”.

These data come from US4110438A, “Method of treating depression” (American Home Products Corporation, priority 1977, dated 1978).
